Numbers after ± are expanded uncertainties.
Test: molar enthalpy of vaporization or sublimation
Conditions: 298.15 K; Liquid; drop calorimetry

`O=C1CCCc2occc21` [6,7-dihydrobenzofuran-4(5H)-one] gave a molar enthalpy of 16.6 ± 1.05 kcal/mol.

From the NIST ThermoML archive (doi:10.1016/j.jct.2012.07.008)
